Results taken from US20230398153A1, “A METHOD FOR EFFICIENT MICROGLIA REPLACEMENT” (The Board of Trustees of the Leland Stanford Junior …, priority 2020, published 2023).

System: PB leukocytes and brain myeloid cells
Experiment: Conventional HSCT after busulfan conditioning: GFP chimerism in peripheral blood and brain
Assay type: in vivo, mouse
Conditions: busulfan 5 days, IV GFP bone marrow
Method: FIG. 1. Microglia replacement after bone marrow transplantation is a slow, inefficient and variable process. (A) Schematic overview of bone marrow transplantation (HSCT). Recipient mice were received intraperitoneal (IP) injection of busulfan for 5 days at 25 mg/kg/day (i.e. 125 mg/kg total dose) and then transplanted with GFP-expressing bone marrow cells via intravenous (IV) injection. Donor chimerism in peripheral blood (PB) and brain myeloid cells was analyzed at the indicated time points. (B and C) Donor chimerism in PB leukocytes (CD45+ cells) and brain myeloid cells (CD45+CD11b+ cells) was analyzed by flow cytometry at the indicated time point. […] GFP chimerism in PB leukocytes (B) (Mean±SEM, n=5-20/time point, ***p<0.001, ns: not significant, ANOVA). […] (F) Quantification of transplanted GFP+bone marrow cells in coronal brain sections. […] Horizontal bars represent mean values (n=3/group, 3 brain slices/animal were quantified. **p<0.01, ***p<0.001, Student's t-test). […] (H) Microglia chimerism was analyzed by flow cytometry 14 days post IV injection. […]
The reported efficiencies of microglia replacement following HSCT in mice vary greatly in the literature. […] Brain chimerism was determined by sacrificing the mice, dissociating one hemisphere for flow cytometry analysis and fixing the other hemisphere for immunofluorescence analysis (FIG. 8A-C). […]

## CS(=O)(=O)OCCCCOS(C)(=O)=O [busulfan]
2 weeks after transplantation, average
  GFP+ cells in peripheral blood: about 40%
Conventional HSCT without PLX5622
  degree of GFP chimerism among brain myeloid cells, range between mice: 7.09-73.4%
